Measurements from ChEMBL document CHEMBL5532734, “Lysosomal Degradation of Extracellular Targets: Innovations and Implications” (ACS Med Chem Lett, 2024).

Target: T1, Sortilin (Homo sapiens, UniProt Q99523)
T1 sequence (Q99523 whole entry): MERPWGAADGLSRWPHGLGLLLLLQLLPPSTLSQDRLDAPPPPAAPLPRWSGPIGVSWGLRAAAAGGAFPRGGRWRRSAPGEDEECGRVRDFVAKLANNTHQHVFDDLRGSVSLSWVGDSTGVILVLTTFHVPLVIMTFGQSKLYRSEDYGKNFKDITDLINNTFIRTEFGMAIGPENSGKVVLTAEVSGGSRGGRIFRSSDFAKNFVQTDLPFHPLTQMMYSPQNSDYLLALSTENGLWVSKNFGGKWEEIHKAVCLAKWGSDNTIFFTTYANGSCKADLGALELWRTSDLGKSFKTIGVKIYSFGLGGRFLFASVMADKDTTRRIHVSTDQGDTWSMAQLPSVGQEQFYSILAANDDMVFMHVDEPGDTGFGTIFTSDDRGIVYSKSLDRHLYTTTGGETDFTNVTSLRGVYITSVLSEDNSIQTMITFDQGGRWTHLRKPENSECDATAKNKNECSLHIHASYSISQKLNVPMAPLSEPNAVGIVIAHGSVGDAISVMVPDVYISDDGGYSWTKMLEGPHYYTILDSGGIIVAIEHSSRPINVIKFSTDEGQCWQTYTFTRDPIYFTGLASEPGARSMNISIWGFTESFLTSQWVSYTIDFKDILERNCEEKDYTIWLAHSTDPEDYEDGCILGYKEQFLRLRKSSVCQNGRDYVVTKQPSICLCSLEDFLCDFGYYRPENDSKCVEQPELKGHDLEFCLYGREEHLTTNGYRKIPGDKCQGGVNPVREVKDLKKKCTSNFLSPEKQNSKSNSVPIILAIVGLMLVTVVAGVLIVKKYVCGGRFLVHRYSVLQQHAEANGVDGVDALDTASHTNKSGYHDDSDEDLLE
Test: Binding affinity to 6-His tagged sortilin (unknown origin) assessed as equilibrium dissociation constant by MST analysis

`C[C@@H]1CN(c2ncc(-c3ccc4c(n3)N(Cc3cccnc3C#N)C(C)(C)C4=O)cn2)CCN1C(=O)COCCCCCCCCNC(=O)c1cccc(Oc2ccc(C(=O)N[C@@H](CCC(C)(C)C)C(=O)O)cn2)c1` and `C[C@@H]1CN(c2ncc(-c3ccc4c(n3)N(Cc3cccnc3C#N)C(C)(C)C4=O)cn2)CCN1C(=O)COCCCCNC(=O)c1cccc(Oc2ccc(C(=O)N[C@@H](CCC(C)(C)C)C(=O)O)cn2)c1` cannot be ordered by Kd: less than 1 nM for the first, less than 1 nM for the second.

`CC(C)(C)CC[C@H](NC(=O)c1ccc(Oc2cccc(C(=O)NCCOCCOCCOCCOCCOCCOc3ncc(-c4ccc5c(n4)N(Cc4cccnc4C#N)C(C)(C)C5=O)cn3)c2)nc1)C(=O)O` and `CC(C)(C)CC[C@H](NC(=O)c1ccc(Oc2cccc(C(=O)NCCOCCOCCOCCOCCOCCNc3ncc(-c4ccc5c(n4)N(Cc4cccnc4C#N)C(C)(C)C5=O)cn3)c2)nc1)C(=O)O` cannot be ordered by Kd: less than 1 nM for the first, less than 1 nM for the second.

Compared with `CC(C)(C)CC[C@H](NC(=O)c1ccc(Oc2cccc(OCCOCCOCCOCCOCCOCCOCCNC(=O)CCC[C@@H]3SC[C@@H]4NC(=O)N[C@@H]43)c2)nc1)C(=O)O`, `C[C@@H]1CN(c2ncc(-c3ccc4c(n3)N(Cc3cccnc3C#N)C(C)(C)C4=O)cn2)CCN1C(=O)CNC(=O)CCCCCCCCCNC(=O)c1cccc(Oc2ccc(C(=O)N[C@@H](CCC(C)(C)C)C(=O)O)cn2)c1` is lower in Kd: 1 nM for the first, less than 1 nM for the second. The second binds more tightly here.
